biological target: SARS2 protease (Severe acute respiratory syndrome coronavirus 2, UniProt P0DTD1); experiment: SARS-CoV-2 protease inhibition assay (SARS2 FRET protease assay); format: biochemical; settings: SARS-CoV-2 protease 25 nM, FRET, peptide substrate 1.3 μM, 30 minutes at 30° C., compounds 20 μM to 1.0 nM; read-out: IC50

| Compound | IC50 [nM] |
| --- | --- |
| O=C(N[C@@H](CC1CCCCC1)C(=O)N[C@@H](CC1CC2(CCCCC2)NC1=O)C(=O)CCl)OCc1cccc(Cl)c1 (stereo partly drawn) [Compound C197, 3-Chlorobenzyl ((2S)-1-(((2S)-4-chloro-3-oxo-1-(2-oxo-1-azaspiro[4.5]decan-3-yl)butan-2-yl)amino)-3-cyclohexyl-1-oxopropan-2-yl)carbamate] | 620 |
| CC(C)C[C@H](NC(=O)OC(CCc1ccccc1)c1ccccc1)C(=O)N[C@H](C=O)C[C@@H]1CCNC1=O (stereo partly shown) [Compound C259] | 50 |
| CC(=O)N1CCC2(CC1)CC(CC(C=O)NC(=O)[C@H](Cc1cccc(F)c1)NC(=O)OCc1cccc(Cl)c1)C(=O)N2 (stereo partly drawn) [Compound C67, 3-Chlorobenzyl ((2S)-1-((1-(8-acetyl-2-oxo-1,8-diazaspiro[4.5]decan-3-yl)-3-oxopropan-2-yl)amino)-3-(3-fluorophenyl)-1-oxopropan-2-yl)carbamate] | 300 |
| O=C(O)C(=O)C(CC1CC2(CCCCC2)NC1=O)NC(=O)[C@H](CC1CCCCC1)NC(=O)c1cc2ccccc2[nH]1 (stereo partly drawn) [Compound C228, 3-((S)-3-Cyclohexyl-2-(1H-indole-2-carboxamido)propanamido)-2-oxo-4-(2-oxo-1-azaspiro[4.5]decan-3-yl)butanoic acid] | 120 |
| CC(C)C[C@H](NC(=O)OCC(C)(C)c1cccc(Cl)c1)C(=O)N[C@H](CO)C[C@@H]1CCNC1=O [Compound C101, 2-(3-Chlorophenyl)-2-methylpropyl ((S)-1-(((S)-1-hydroxy-3-((S)-2-oxopyrrolidin-3-yl)propan-2-yl)amino)-4-methyl-1-oxopentan-2-yl)carbamate] | > 20000 |
| COc1cccc2[nH]c(C(=O)N[C@@H](CC3CCCCC3)C(=O)NC(CC3CC4(CCOCC4)NC3=O)C(=O)C(=O)NC3CC3)cc12 (stereo partly drawn) [Compound C191, N-((2S)-3-Cyclohexyl-1-((4-(cyclopropylamino)-3,4-dioxo-1-(2-oxo-8-oxa-1-azaspiro[4.5]decan-3-yl)butan-2-yl)amino)-1-oxopropan-2-yl)-4-methoxy-1H-indole-2-carboxamide] | 305 |
| Cc1cccc(C(OC(=O)N[C@@H](CC2CCCCC2)C(=O)N[C@H](C=O)C[C@@H]2CCNC2=O)C(C)(C)c2cccc(Cl)c2)c1 (stereo partly drawn) [Compound C136, 2-(3-Chlorophenyl)-2-methyl-1-(m-tolyl) propyl ((S)-3-cyclohexyl-1-oxo-1-(((S)-1-oxo-3-((S)-2-oxopyrrolidin-3-yl)propan-2-yl)amino)propan-2-yl) carbamate] | 0.45 |
| CC(C)C[C@H](NC(=O)OC(c1ccccc1)C(C)(C)c1cccc(Cl)c1)C(=O)N[C@@H](CC1CC(C)(C)NC1=O)C(=O)C(=O)NC1CC1 (stereo partly drawn) [Compound C163, 2-(3-Chlorophenyl)-2-methyl-1-phenylpropyl ((2S)-1-((4-(cyclopropylamino)-1-(5,5-dimethyl-2-oxopyrrolidin-3-yl)-3,4-dioxobutan-2-yl)amino)-4-methyl-1-oxopentan-2-yl) carbamate] | 1810 |
| CC(=O)N1CCC2(CC1)C[C@@H](C[C@H](NC(=O)[C@H](CC1CCCCC1)NC(=O)c1cc3ccccc3[nH]1)C(=O)C(N)=O)C(=O)N2 [Compound C121, N—((S)-1-(((S)-1-((R)-8-acetyl-2-oxo-1,8-diazaspiro[4.5]decan-3-yl)-4-amino-3,4-dioxobutan-2-yl)amino)-3-cyclohexyl-1-oxopropan-2-yl)-1H-indole-2-carboxamide] | 178 |
| CC(C)(c1cccc(Cl)c1)C(OC(=O)N[C@@H](CC1CCCCC1)C(=O)N[C@@H](C[C@@H]1CCNC1=O)C(=O)C(=O)N1CCCC1)c1ccc2ccccc2c1 (stereo partly drawn) [Compound C150, 2-(3-Chlorophenyl)-2-methyl-1-(naphthalen-2-yl)propyl ((S)-3-cyclohexyl-1-(((S)-3,4-dioxo-1-((S)-2-oxopyrrolidin-3-yl)-4-(pyrrolidin-1-yl)butan-2-yl)amino)-1-oxopropan-2-yl)carbamate] | > 20000 |
| CCCCCOC(=O)N[C@@H](CC(C)C)C(=O)NC(C)(C=O)CC1CCNC1=O (stereo partly drawn) [Compound C65, Pentyl ((2S)-4-methyl-1-((2-methyl-1-oxo-3-(2-oxopyrrolidin-3-yl)propan-2-yl)amino)-1-oxopentan-2-yl) carbamate] | 26900 |
| COc1cccc2[nH]c(C(=O)N[C@@H](CC3CCCCC3)C(=O)NC(C=O)CC3CC4(CCCCC4)NC3=O)cc12 (stereo partly drawn) [Compound C193, N-((2S)-3-Cyclohexyl-1-oxo-1-((1-oxo-3-(2-oxo-1-azaspiro[4.5]decan-3-yl)propan-2-yl)amino)propan-2-yl)-4-methoxy-1H-indole-2-carboxamide] | 0.7 |
| CCOP(=O)(OCC)C(O)C(CC1CC2(CCN(C(C)=O)CC2)NC1=O)NC(=O)C(CC(C)C)NC(=O)OCc1cccc(Cl)c1 (stereo in doubt) [Compound C69, 3-Chlorobenzyl ((2R)-1-((3-(8-acetyl-2-oxo-1,8-diazaspiro[4.5]decan-3-yl)-1-(diethoxyphosphoryl)-1-hydroxypropan-2-yl)amino)-4-methyl-1-oxopentan-2-yl)carbamate] | 26800 |
| CC(C)C[C@H](NC(=O)OC1CCN(C(=O)OC(C)(C)C)c2ccccc21)C(=O)N[C@H](C=O)C[C@@H]1CCNC1=O (stereo partly drawn) [Compound C59, Tert-butyl 4-((((S)-4-methyl-1-oxo-1-(((S)-1-oxo-3-((S)-2-oxopyrrolidin-3-yl)propan-2-yl)amino)pentan-2-yl)carbamoyl)oxy)-3,4-dihydroquinoline-1(2H)-carboxylate] | 100 |
| CC(C)C[C@H](NC(=O)OC(c1ccccc1)C(C)(C)c1cccc(Cl)c1)C(=O)N[C@H](C=O)C[C@@H]1CCNC1=O (stereo partly drawn) [Compound C108, 2-(3-Chlorophenyl)-2-methyl-1-phenylpropyl ((S)-4-methyl-1-oxo-1-(((S)-1-oxo-3-((S)-2-oxopyrrolidin-3-yl)propan-2-yl)amino)pentan-2-yl) carbamate] | 1.2 |
| CC(C)C[C@H](NC(=O)OC1CCCC1Cc1cccc(Cl)c1)C(=O)N[C@@H](C[C@@H]1CCNC1=O)C(=O)NS(=O)(=O)C1CC1 (stereo partly drawn) [Compound C239, 2-(3-Chlorobenzyl) cyclopentyl ((S)-1-(((S)-1-(cyclopropanesulfonamido)-1-oxo-3-((S)-2-oxopyrrolidin-3-yl)propan-2-yl)amino)-4-methyl-1-oxopentan-2-yl) carbamate] | > 20000 |
| CC(C)C[C@H](NC(=O)OC1CCCC1Cc1ccccc1)C(=O)NC(C[C@@H]1CCNC1=O)C(=O)C(=O)NC1CC1 (stereo in doubt) [Compound C89, 2-Benzylcyclopentyl ((S)-1-(((R)-4-(cyclopropylamino)-3,4-dioxo-1-((S)-2-oxopyrrolidin-3-yl)butan-2-yl)amino)-4-methyl-1-oxopentan-2-yl)carbamate] | 300 |
| CC(OC(=O)N[C@@H](CC1CCCCC1)C(=O)N[C@H](C=O)CCC(=O)N(C)CCc1ccccc1)c1cccc(Cl)c1 (stereo partly shown) [Compound C25] | 11100 |
| CCOCCNC(=O)C(=O)[C@H](C[C@@H]1CCNC1=O)NC(=O)[C@H](CC1CCCCC1)NC(=O)OC(c1ccccc1)C(C)(C)c1cccc(Cl)c1 (stereo partly shown) [Compound C271] | 2000 |
| CC(C)C[C@H](NC(=O)OC(c1ccccc1)C(F)(F)c1cccc(Cl)c1)C(=O)N[C@@H](C[C@@H]1CCNC1=O)C(=O)C(N)=O (stereo partly shown) [Compound C251] | 0.008 |
| CC1(C)CC(CC(NC(=O)[C@H](CC2CCCCC2)NC(=O)OC(c2ccc(Cl)cc2)C(C)(C)c2cccc(Cl)c2)C(=O)C(=O)NC2CC2)C(=O)N1 (stereo partly shown) [Compound C245] | 1980 |
| CC(C)C[C@H](NC(=O)OCc1cccc(Cl)c1)C(=O)NC(C=O)CC1CC2(CCCCC2)NC1=O (stereo partly drawn) [Compound C66, 3-Chlorobenzyl ((2S)-4-methyl-1-oxo-1-((1-oxo-3-(2-oxo-1-azaspiro[4.5]decan-3-yl)propan-2-yl)amino)pentan-2-yl)carbamate] | 100 |
| CC(C)C[C@H](NC(=O)OC(c1ccccc1)C(C)(C)c1cccc(Cl)c1)C(=O)N[C@@H](C[C@@H]1CCNC1=O)C(=O)C(N)=O (stereo partly drawn) [Compound C207, 2-(3-Chlorophenyl)-2-methyl-1-phenylpropyl ((S)-1-(((S)-4-amino-3,4-dioxo-1-((S)-2-oxopyrrolidin-3-yl)butan-2-yl)amino)-4-methyl-1-oxopentan-2-yl)carbamate] | 315 |
| CN(C)C(=O)CC[C@@H](C=O)NC(=O)C(CC(C)(C)C)NC(=O)OCc1cccc(Cl)c1 (stereo partly drawn) [Compound C22, 3-Chlorobenzyl (1-(((S)-5-(dimethylamino)-1,5-dioxopentan-2-yl)amino)-4,4-dimethyl-1-oxopentan-2-yl)carbamate] | 3800 |
| CC(C)C[C@H](NC(=O)N(Cc1ccccc1)C1CCN(C(=O)OC(C)(C)C)CC1)C(=O)N[C@@H](C[C@@H]1CCNC1=O)C(=O)C(=O)NC1CC1 [Compound C98, Tert-butyl 4-(1-benzyl-3-((S)-1-(((S)-4-(cyclopropylamino)-3,4-dioxo-1-((S)-2-oxopyrrolidin-3-yl)butan-2-yl)amino)-4-methyl-1-oxopentan-2-yl)ureido)piperidine-1-carboxylate] | 2200 |
| O=C[C@H](CC1CC2(CCCC2)NC1=O)NC(=O)[C@H](CC1CCCCC1)NC(=O)OC1CCCC1Cc1cccc(Cl)c1 (stereo partly drawn) [Compound C165, 2-(3-chlorobenzyl)cyclopentyl ((2S)-3-cyclohexyl-1-oxo-1-((1-oxo-3-(2-oxo-1-azaspiro[4.4]nonan-3-yl)propan-2-yl)amino)propan-2-yl)carbamate] | 106 |
| CC1(C)CC(C[C@@H](C=O)NC(=O)[C@H](CC2CCCCC2)NC(=O)OC(Cc2cccc(Cl)c2)c2cccc(Cl)c2)C(=O)N1 (stereo partly drawn) [Compound C162, 1,2-Bis(3-Chlorophenyl)ethyl ((2S)-3-cyclohexyl-1-((1-(5,5-dimethyl-2-oxopyrrolidin-3-yl)-3-oxopropan-2-yl)amino)-1-oxopropan-2-yl)carbamate] | 92.2 |
| CCCC1CCC(OC(=O)NC(CC(C)C)C(=O)NC(CC2CC3(CCN(C(C)=O)CC3)NC2=O)C(O)P(=O)(OCC)OCC)CC1 (stereo in doubt) [Compound C91, 4-Propylcyclohexyl ((2R)-1-((3-(8-acetyl-2-oxo-1,8-diazaspiro[4.5]decan-3-yl)-1-(diethoxyphosphoryl)-1-hydroxypropan-2-yl)amino)-4-methyl-1-oxopentan-2-yl)carbamate] | > 20000 |

— US20230159453A1 (COCRYSTAL PHARMA, INC., priority 2020, published 2023)
